Source: US12043670B2, “Anti-BCMA antibody-drug conjugates and methods of use” (Eisai R&D Management Co., Ltd., priority 2020, dated 2024)
Like-named read-outs stand apart in the source and are kept apart here.

How the values were obtained:
[1] = Chemical stability in buffer pH 5.5; format: physicochemical; conditions: Mcilvane (Citrate-Phosphate) buffer pH 5.5, 37° C., read-out: Stability %, Mean, t1/2 pH 5.5 (converted)
Description: Payloads were incubated in Mcilvane (Citrate-Phosphate) buffer, pH 5.5 (Boston Bioproducts; #BB-2466) at a final concentration of 20 μM (less than 0.5% DMSO from stock solution). The payload solution and the internal standard were pipetted into 96-well plates, run on UPLC (Waters Aquity H class), and analyzed for initial chromatographic signal (t=0). The column was a Waters UPLC HSS T31.8 μm 2.1×50 mm column (#186003538). A gradient of mobile phase A from 95% to 10% was employed over 1 min, where A was 0.1% formic acid in water and mobile phase B was 0.1% formic acid in acetonitrile (flow rate 0.9 mL/min). The remainder of the payload solution was kept in a plate shaker at 37° C. (Eppendorf ThermoMixer). Sample analyses by UPLC were repeated at 24, 72, and 96 hours post-incubation at 37° C. The area ratio response of the payload and internal standard was determined for three time points: time 0, day 1, and either day 3 or day 4. Time 0 was set to 100. The area ratio responses of the later time points were compared to time 0. Percent remaining was calculated as follows: (Area Ratio day X/Area Ratio time 0)*100=% remaining. The slope of the line was calculated in Excel comparing the log of % remaining and time point.

[2] = system: MOLP8 cells; test: CellTiter-Glo cell viability, MOLP8; format: cell-based, human
[3] = system: MM1.S cells; test: CellTiter-Glo cell viability, MM1.S; format: cell-based, human; conditions: for GI50: Homo sapiens
[4] = system: splicing of Ad2.1 pre-mRNA in HeLa nuclear extract; test: In vitro splicing (IVS), qPCR readout, Ad2.1 substrate; format: biochemical
Description: To evaluate payload activity in a cell-free system, an in vitro splicing assay was performed. The payloads were incubated with nuclear extracts and pre-mRNA substrate minigenes.
HeLa nuclear extract preparation: HeLa S3 cell pellets were resuspended in hypotonic buffer (10 mM HEPES pH 7.9, 1.5 mM MgCl2, 10 mM KCl, 0.2 mM PMSF, 0.5 mM DTT) and the suspension was brought up to a total of 5 packed cell volume (PCV). After centrifugation, the supernatant was discarded, and the cells were brought up to 3 PCV with hypotonic buffer and incubated on ice for 10 min. Cells were lysed using a dounce homogenizer and then centrifuged. The supernatant was discarded, and the pellet was resuspended with ½ packed nuclear volume (PNV) of low salt buffer (20 mM HEPES pH 7.9, 1.5 mM MgCl2, 20 mM KCl, 0.2 mM EDTA, 25% glycerol, 0.2 mM PMSF, 0.5 mM DTT), followed by ½ PNV of high salt buffer (same as low salt buffer except 1.4 M KCl). The nuclei were gently mixed for 30 min before centrifuging. The supernatant (nuclear extract) was then dialyzed into storage buffer (20 mM HEPES pH 7.9, 100 mM KCl, 0.2 mM EDTA, 20% glycerol, 0.2 mM PMSF, 0.5 mM DTT). Protein concentration was determined using NanoDrop 8000 UV-Vis spectrophotometer (ThermoFisher Scientific). […]

[5] = PAMPA permeability; format: in vitro ADME; conditions: read-out: Stability, Mean, Perm PAMPA
[6] = system: AMO-1 cells; test: 6-day CellTiter-Glo cell viability, AMO-1; format: cell-based, human
[7] = system: EJM cells; test: 6-day CellTiter-Glo cell viability, EJM; format: cell-based, human
[8] = system: NCI-H929 cells; test: CellTiter-Glo cell viability, NCI-H929 (normal serum); format: cell-based, human; conditions: for GI50: Homo sapiens
[9] = system: MM1.R cells; test: CellTiter-Glo cell viability, MM1.R; format: cell-based, human; conditions: for GI50: Homo sapiens, MM.1R

SMILES: CC[C@H](O)[C@@H](C)[C@H]1O[C@@H]1C[C@@](C)(O)/C=C/C=C(\C)[C@H]1OC(=O)C[C@H](O)CC[C@@](C)(O)[C@@H](OC(=O)N2CCNCC2)/C=C/[C@@H]1C [D1, (2S,3S,6S,7R,10R,E)-7,10-dihydroxy-2-((R,2E,4E)-6-hydroxy-7-((2R,3R)-3-((2R,3S)-3-hydroxypentan-2-yl)oxiran-2-yl)-6-methylhepta-2,4-dien-2-yl)-3,7-dimethyl-12-oxooxacyclododec-4-en-6-yl piperazine-1-carboxylate]
- half-life at 20 μM [1]: 1440 min
- GI50 ([2]; Homo sapiens, MOLP-8, 144 h): 150 nM
- AUC (nM * % relative viability) ([2]; MOLP8 cells, 6 days): 690.1106 nM * % relative viability
- LD50 ([2]; MOLP8 cells, 6 days, CellTiter-Glo): 533.6503 nM
- RminAve ([2]; MOLP8 cells, 6 days, negative = cell death vs T0): −99.755%
- GI50 ([3]; MM1.S, 96 h, read-out: CTGlo Mean GI50 MM1.S 96 h): 37.1 nM
- GI50 ([3]; MM1.S, 144 h): 88.4 nM
- AUC (nM * % relative viability) ([3]; MM1S cells, 6 days): 644.3501 nM * % relative viability
- LD50 ([3]; MM1S cells, 6 days, CellTiter-Glo): 302.924 nM
- RminAve ([3]; MM1S cells, 6 days, negative = cell death vs T0): −99.8996%
- CTGlo Mean LD50 MM1.S 96 h ([3]; payload alone, MM1.S, 96 h): 98.2 nM
- IC50 [4]: 16.5 nM
- Papp [5]: < 0.1 ×10⁻⁶ cm/s
- AUC (nM * % relative viability) ([6]; AMO1 cells, 6 days): 797.7136 nM * % relative viability
- LD50 ([6]; AMO1 cells, 6 days, CellTiter-Glo): 1689.735 nM
- RminAve ([6]; AMO1 cells, 6 days, negative = cell death vs T0): −99.4709%
- GI50 ([6]; Homo sapiens, AMO1, 144 h): 567 nM
- AUC (nM * % relative viability) ([7]; EJM cells, 6 days): 664.163 nM * % relative viability
- LD50 ([7]; EJM cells, 6 days, CellTiter-Glo): 303.5191 nM
- RminAve ([7]; EJM cells, 6 days, negative = cell death vs T0): −99.0579%
- GI50 ([7]; Homo sapiens, EJM, 144 h): 140 nM
- GI50 ([8]; NCI-H929, 96 h, read-out: CTGlo Mean GI50 H929 96 h): 75.5 nM
- GI50 ([8]; NCI-H929, 144 h): 119 nM
- AUC (nM * % relative viability) ([8]; NCIH929 cells, 6 days): 646.6007 nM * % relative viability
- LD50 ([8]; NCIH929 cells, 6 days, CellTiter-Glo): 246.6292 nM
- RminAve ([8]; NCIH929 cells, 6 days, negative = cell death vs T0): −99.8009%
- CTGlo Mean LD50 H929 96 h ([8]; payload alone, H929, 96 h): 201 nM
- GI50 ([9]; 96 h, read-out: CTGlo Mean GI50 MM1.R 96 h): 147 nM
- GI50 ([9]; 144 h): 89.3 nM
- AUC (nM * % relative viability) ([9]; MM1R cells, 6 days): 640.2408 nM * % relative viability
- LD50 ([9]; MM1R cells, 6 days, CellTiter-Glo): 283.0093 nM
- RminAve ([9]; MM1R cells, 6 days, negative = cell death vs T0): −99.9109%
- CTGlo Mean LD50 MM1.R 96 h ([9]; payload alone, MM1.R, 96 h): 510.8 nM
